ChEMBL document CHEMBL1158718, “4-Hydroxybenzoyl derivative from the aqueous extract of the hydroid Campanularia sp” (J Nat Prod, 2005)
The source made the active and inactive calls. The calls are words filed in the database; no cut-off is given here.

Tests used:
ARP1 [1] = test: Induction of P21WAF1 gene expression in human ARP1 cells; assay type: functional, cell-based
[2] = target: Histone deacetylase (Homo sapiens) (UniProt Q13547+O15379+Q9UBN7+Q92769+Q9UQL6+Q8WUI4+Q9BY41+Q96DB2+P56524+Q9UKV0+Q969S8); test: Inhibition of HDAC in human ARP1 cells; assay type: cell-based
ARP1 [3] = test: Growth inhibition of human ARP1 cells up to 100 uM; assay type: functional, cell-based

Row | Activity [2] | SMILES | Activity (ARP1 [1]) | Activity (ARP1 [3])
1 | – | O=C(CCCCCCC(=O)Nc1ccccc1)NO | Active | –
2 | inactive | N=C(N)NCCCCNC(=O)C(=O)c1ccc(O)cc1 | – | inactive
